According to the supplement of paper PMC8671470:

What was measured:
Conditions in all cases: 72 h
MOLM-13 [1] = system: MOLM-13
Outline: (§1)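 Fifteen myeloid leukaemia lines in RPMI 1640 were treated for 72 h at 37 °C and 5% CO2 with five tenfold doses from 1 to 10,000 nM, in duplicate. ATP luminescence was normalised to vehicle and to a positive control at 10 µM, then fitted with a four-parameter log-logistic model. The IC50 came from these fits.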

ML-2 [2] = system: ML-2
Outline: as §1

SHI-1 [3] = system: SHI-1
Outline: as §1

KCL-22 [4] = system: KCL-22
Outline: as §1

KG-1 [5] = system: KG-1
Outline: as §1

BV-173 [6] = system: BV-173
Outline: as §1

Mono-Mac-6 [7] = system: Mono-Mac-6
Outline: as §1

LAMA-84 [8] = system: LAMA-84
Outline: as §1

HEL [9] = system: HEL
Outline: as §1

THP-1 [10] = system: THP-1
Outline: as §1

MV4-11 [11] = system: MV4-11
Outline: as §1

HL-60 [12] = system: HL-60
Outline: as §1

KU-812 [13] = system: KU-812
Outline: as §1

NOMO-1 [14] = system: NOMO-1
Outline: as §1

K-562 [15] = system: K-562
Outline: as §1

MOLM-13 [16] = test: cell viability (% survival relative to DMSO control, bortezomib = 0%); higher = less cytotoxic
Outline: (§2)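 Fifteen myeloid leukaemia cell lines (10 AML, 5 CML) were seeded at a density titrated to the linear growth range. They went into 384-well plates with compounds pre-printed at 1, 10, 100, 1000 or 10000 nM in duplicate. After 72 h at 37 °C with 5% CO2, viability was read by CellTiter-Glo luminescence. Values are percent survival, with vehicle set to 100% and a 10 µM positive control to 0%, averaged over the duplicates.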

ML-2 [17] = test: as above
Outline: as §2

SHI-1 [18] = test: as above
Outline: as §2

KCL-22 [19] = test: as above
Outline: as §2

KG-1 [20] = test: as above
Outline: as §2

BV-173 [21] = test: as above
Outline: as §2

Mono-Mac-6 [22] = test: as above
Outline: as §2

LAMA-84 [23] = test: as above
Outline: as §2

HEL [24] = test: as above
Outline: as §2

THP-1 [25] = test: as above
Outline: as §2

MV4-11 [26] = test: as above
Outline: as §2

HL-60 [27] = test: as above
Outline: as §2

KU-812 [28] = test: as above
Outline: as §2

NOMO-1 [29] = test: as above
Outline: as §2

K-562 [30] = test: as above
Outline: as §2

CC[C@H](C)[C@H](N)C(=O)N1CCSC1 [P32/98]
Conditions	IC50 (cell viability) [nM]
BV-173 [6]	> 10000
HEL [9]	> 10000
HL-60 [12]	> 10000
K-562 [15]	> 10000
KCL-22 [4]	> 10000
KG-1 [5]	> 10000
KU-812 [13]	> 10000
LAMA-84 [8]	> 10000
ML-2 [2]	> 10000
MOLM-13 [1]	> 10000
MV4-11 [11]	> 10000
Mono-Mac-6 [7]	> 10000
NOMO-1 [14]	> 10000
SHI-1 [3]	> 10000
THP-1 [10]	> 10000

cell viability [%]
Conditions	1 nM	10 nM	100 nM	1000 nM	10000 nM
BV-173 [21]	96.2	95.3	96.7	115	84
HEL [24]	105	98.7	109	107	105
HL-60 [27]	88.1	103	108	98.6	76.7
K-562 [30]	101	98.6	96.6	101	100
KCL-22 [19]	96.8	97.3	107	98.2	100
KG-1 [20]	97.9	110	108	112	137
KU-812 [28]	97.7	92.3	92.6	103	97.9
LAMA-84 [23]	96.6	102	102	106	103
ML-2 [17]	102	102	102	103	91.2
MOLM-13 [16]	84.3	87.8	99.7	103	97.4
MV4-11 [26]	98.7	110	106	96.9	108
Mono-Mac-6 [22]	93.6	99	109	103	101
NOMO-1 [29]	102	102	99.6	102	92.9
SHI-1 [18]	111	99.9	103	97.1	88.5
THP-1 [25]	96.8	105	112	104	106

CC(=O)Nc1nc(C)c(-c2ccc(Cl)c(S(=O)(=O)NCCO)c2)s1 [PIK93]
Conditions	IC50 (cell viability) [nM]
BV-173 [6]	792
HEL [9]	2190
HL-60 [12]	935
K-562 [15]	2660
KCL-22 [4]	1120
KG-1 [5]	2560
KU-812 [13]	2690
LAMA-84 [8]	8060
ML-2 [2]	607
MOLM-13 [1]	959
MV4-11 [11]	1090
Mono-Mac-6 [7]	1020
NOMO-1 [14]	2050
SHI-1 [3]	1090
THP-1 [10]	1510

cell viability [%]
Conditions	1 nM	10 nM	100 nM	1000 nM	10000 nM
BV-173 [21]	119	103	95.8	45.6	9.29
HEL [24]	111	94	96.8	74.5	33.1
HL-60 [27]	119	120	84.2	50.7	3.89
K-562 [30]	134	98.9	110	82.3	31.9
KCL-22 [19]	132	99.4	100	64.2	20.7
KG-1 [20]	93.9	106	100	80.8	32.6
KU-812 [28]	92.6	93.9	94.7	80.1	29.2
LAMA-84 [23]	113	95.3	102	90.6	55.8
ML-2 [17]	106	98.8	92.6	38.3	8.96
MOLM-13 [16]	129	111	89.9	50.2	0.72
MV4-11 [26]	96.3	95.7	84.5	51.1	0.217
Mono-Mac-6 [22]	95.8	90.9	85.5	52.4	17.6
NOMO-1 [29]	101	96.7	92.7	69.1	22.9
SHI-1 [18]	104	94.6	97.3	57.6	13.4
THP-1 [25]	105	102	112	74.7	24.5
